Entries after “also recorded” stand apart in the source; their conditions may differ.
Key:
[1] = tested on: ptD primary ovarian cancer cells; experiment: MTT assay in ptD cells; type: cell-based, human; conditions: for IC50: Homo sapiens; for IC50 / dose of single agent giving virtually complete cell death (95% cell death): ptD, 72 h; for dose of single agent giving virtually complete cell death (95% cell death): agent alone
Protocol: Drug responses were evaluated in the well-established OVCAR5 cancer cell line and a variety of primary ovarian cancer cells lines derived from patient ascites (ptD, ptH, ptG, PKD1, PKD2).

OVCAR5 cells [2] = experiment: MTT assay in OVCAR5 cells; type: cell-based, human; conditions: for IC50: Homo sapiens, OVCAR-5, 72 h; for dose of single agent giving virtually complete cell death (95% cell death): 72 h, agent alone
Protocol: (§1) Drug responses were evaluated in the well-established OVCAR5 cancer cell line and a variety of primary ovarian cancer cells lines derived from patient ascites ([…], PKD1, PKD2).

[3] = tested on: PtD cells xenografted in the flank of nude mice; experiment: PtD xenograft in nude mice; type: in vivo; conditions: 30 mg/kg/day for 3 consecutive days
MISR2 (MISRII) = biological target: T1, MISR2 (MISRII) (Rattus norvegicus, UniProt Q62893); experiment: rat fetal urogenital ridge (UGR) assay; conditions: UGR culture, 72 h
T1 construct: UGR tissue is dissected from 14.5d female fetal rats and cultured ex-vivo; from tissue; host or cells: fetal rat urogenital ridge (14.5d female), organ culture
T1 sequence (Q62893 18-557): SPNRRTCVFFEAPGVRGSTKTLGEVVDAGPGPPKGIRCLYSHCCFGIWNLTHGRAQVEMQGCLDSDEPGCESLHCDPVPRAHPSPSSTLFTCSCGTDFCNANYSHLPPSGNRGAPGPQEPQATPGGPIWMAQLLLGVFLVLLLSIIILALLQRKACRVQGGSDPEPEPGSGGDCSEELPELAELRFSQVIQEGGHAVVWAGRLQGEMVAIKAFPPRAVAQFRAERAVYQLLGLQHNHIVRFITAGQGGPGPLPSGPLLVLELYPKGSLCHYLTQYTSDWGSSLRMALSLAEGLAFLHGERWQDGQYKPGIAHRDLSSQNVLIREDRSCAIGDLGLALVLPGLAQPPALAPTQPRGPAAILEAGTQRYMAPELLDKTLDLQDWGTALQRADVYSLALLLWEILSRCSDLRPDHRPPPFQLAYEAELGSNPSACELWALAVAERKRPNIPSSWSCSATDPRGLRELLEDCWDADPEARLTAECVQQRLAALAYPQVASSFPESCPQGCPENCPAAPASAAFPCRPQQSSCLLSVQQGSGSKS
Protocol: UGR tissue is dissected from 14.5d female fetal rats and cultured ex-vivo on a semi solid substrate (agarose droplet on a metal grid) suspended over media at the air/media interface. The UGR from each female is cultured for 72 h in presence of the drugs while the contralateral ridge is cultured in vehicle (DMSO) as a control. The regression of the Mullerian duct, which is specific to MIS activity, is measured in sections of UGR after fixing and embedding.

[4] = tested on: OVCAR5 and primary ovarian cancer cell lines (ptD, ptH, ptG, PKD1, PKD2); experiment: MTT assay in a panel of ovarian cancer cell lines; type: cell-based, human; conditions: 72 h, all cell lines
Protocol: as §1

ptD cells = experiment: cell cycle distribution by PI staining and flow cytometry in ptD cells; type: cell-based, human
Text: (§2) This pattern is observed in both cells lines, but is particularly pronounced in OVCAR5 (FIG. 5C).

OVCAR5 cells [5] = experiment: cell cycle distribution by PI staining and flow cytometry in OVCAR5 cells; type: cell-based, human; conditions: OVCAR5 synchronized by serum deprivation 24 h, 25 uM with 10% serum
Text: as §2

CDKi P21 = experiment: qPCR expression of CDKi P21 in ptD cells; type: cell-based, human; conditions: 25 μM, 2-48 h
Text: (§3) To decipher the mechanism of cell cycle block observed by treatment with M-SP600, the inventors next assessed the expression of the kinases CDKi P15 and P21 by qPCR, since these kinases control G1/S transition.

CDKi P15 = experiment: qPCR expression of CDKi P15; type: cell-based
Text: as §3

[6] = tested on: OVCAR5 cells xenografted in the flank of nude mice; experiment: OVCAR5 xenograft in nude mice; type: in vivo, mouse; conditions: 60 mg/kg/day, 5 days on 2 days off for 3 weeks
Protocol: A longer experiment was subsequently carried out using OVCAR5 cells xenografted at 1×10^6 in the flank of nude mice, which were treated 72 h later in a 5 days on 2 days off schedule for 3 weeks at a dose of 60 mg/kg/day using 3 groups of 5 mice randomly selected.

300 kinases = conditions: 0.5 μM inhibitor, 10 uM ATP; cited from earlier work
JNKs = conditions: Bennet et al. 2001; cited from earlier work
[7] = tested on: c-JUN phosphorylation (canonical downstream target of JNKs); experiment: western blot of c-JUN phosphorylation in ptD cells; type: cell-based, human; conditions: 25 uM, 30 min

## CCCS(=O)(=O)Nc1ccc(F)c(C(=O)c2c[nH]c3ncc(-c4ccc(Cl)cc4)cc23)c1F [Vemurafinib]
[1]; ptD cells with BRAF V600E mutation
  sensitivity of cells to the drug: exquisitely sensitive

## Oc1c2ccccc2c2c3c(cccc13)N=N2 [SP600, 1,9-pyrazoloathrone, reference compound]
[1]
  IC50: 6.25 µM
OVCAR5 cells [2]
  IC50: 12.5 µM
[3]
  tolerability: well tolerated

## Cn1nc2c3c(cccc31)C(=O)c1ccccc1-2 [M-SP600, N1-methyl-1,9-pyrazolothrone]
MISR2 (MISRII)
  size of Wolffian ducts: smaller Wolffian ducts
[1]
  IC50: 6.25 µM
  dose of single agent giving virtually complete cell death (95% cell death): 50 µM
OVCAR5 cells [2]
  dose of single agent giving virtually complete cell death (95% cell death): 50 µM
  IC50: 12.5 µM
[4]
  inhibition of cancer cell growth: inhibited
ptD cells; asynchronous ptD cells, 25 uM, 24 h
  cell cycle distribution: marked reduction in cells in S phase accompanied by an accumulation of cells particularly in G1 and less so in G2; also recorded: more pronounced with M-SP600 than SP600
ptD cells; ptD synchronized by serum deprivation 24 h, 25 uM with 10% serum
  cell cycle block: causes a G1 block
OVCAR5 cells [5]
  cell cycle block: causes a G1 block
CDKi P21
  expression of P21 by qPCR: induce P21; also recorded: greater for the M-SP600 than the SP600
CDKi P15
  expression of P15: upregulation of P21 and P15
[3]
  tolerability: well tolerated
[3]; one week after implant
  tumor growth: strong trend emerged of inhibition of tumor growth
[6]; versus control at day 15
  tumor growth: significantly inhibited
[6]; versus control at day 15, listed as MSP600, 60 mg/kg/day
  tumor growth: significantly lower than control
300 kinases
  number of kinases inhibited at more than 50%: 4
JNKs
  inhibition of JNKs: does not inhibit JNKs

## CCOc1nc(NC(=O)Cc2cc(OC)ccc2OC)cc(N)c1C#N [JNK inhibitor VIII, reference compound]
[7]
  c-JUN phosphorylation: inhibited

## COc1cccc2c1C(=O)c1c(O)c3c(c(O)c1C2=O)C[C@@](O)(C(=O)CO)C[C@@H]3O[C@H]1C[C@H](N)[C@H](O)[C@H](C)O1 [DOX, doxorubicin, reference compound]
[1]
  dose of single agent giving virtually complete cell death (95% cell death): greater than 300 μM
OVCAR5 cells [2]
  dose of single agent giving virtually complete cell death (95% cell death): 300 µM
